Test results reported in ChEMBL document CHEMBL1201862, “PubChem BioAssay data set” (2004).
Activity calls are given as the source filed them.

What was measured:
[1] = biological target: T1, Phospholipase D2 (Homo sapiens, UniProt O14939); assay: PLD2 purified enzyme concentration response. [Related pubchem assays (depositor defined):AID588854]; format: functional
[2] = biological target: Phospholipase D1 (Homo sapiens, UniProt Q13393); assay: PLD1 purified enzyme concentration response. [Related pubchem assays (depositor defined):AID588854]; format: functional
[3] = biological target: T1, Phospholipase D2; assay: PLD2 inhibitor potency in cells, dose response (AID 602147); format: functional;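 note: cellular assay in HEK293 cells overexpressing GFP-tagged PLD2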
[4] = tested on: HEK293; assay: SAR Analysis of small molecule inhibitors of T-cell specific antigen receptor-induced NF-kB activation in a HEK-293T cell line using a luminescence assay - Set 2. [Related pubchem assays (depositor defined):AID435003, AID435012, AID489026]; format: functional, cell-based; details: Homo sapiens
[5] = tested on: Jurkat; assay: SAR Analysis of small molecule inhibitors of T-cell specific antigen receptor-induced NF-kB activation in a Jurkat cell line using a luminescence assay - Set 2. [Related pubchem assays (depositor defined):AID435003, AID435012, AID465]; format: functional, cell-based; details: Homo sapiens
[6] = tested on: HEK293; assay: cytotoxicity in HEK293T NF-kB-Luc cells, SAR follow-up, cytotoxicity control for NF-kB activator project, cell-based, resazurin fluorescence (AID 493251); format: functional; details: Homo sapiens
[7] = biological target: Dual specificity protein phosphatase 3 (Homo sapiens, UniProt P51452); assay: SAR VHR1 Fluorescent Assay for In Vitro dose response studies Set 3. [Related pubchem assays (depositor defined):AID1654, AID1661, AID1878]; format: functional
[8] = CellTiter-Glo luminescent dose response of DLD-1 viability loss (AID 1117352); format: functional
[9] = biological target: T2, Oxysterols receptor LXR-beta (Homo sapiens, UniProt P55055); format: functional, cell-based;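 note: agonist activity at LXR measured by a cell-based luminescence readout across a dose range, run as a counterscreen for daf-12 agonists; HEK293 cells with Gal4-LXR fusion and GAL4-driven luciferase reporter; potency for activation of Gal4-LXR reporter so compounds are agonists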
T2 sequence (P55055 whole entry): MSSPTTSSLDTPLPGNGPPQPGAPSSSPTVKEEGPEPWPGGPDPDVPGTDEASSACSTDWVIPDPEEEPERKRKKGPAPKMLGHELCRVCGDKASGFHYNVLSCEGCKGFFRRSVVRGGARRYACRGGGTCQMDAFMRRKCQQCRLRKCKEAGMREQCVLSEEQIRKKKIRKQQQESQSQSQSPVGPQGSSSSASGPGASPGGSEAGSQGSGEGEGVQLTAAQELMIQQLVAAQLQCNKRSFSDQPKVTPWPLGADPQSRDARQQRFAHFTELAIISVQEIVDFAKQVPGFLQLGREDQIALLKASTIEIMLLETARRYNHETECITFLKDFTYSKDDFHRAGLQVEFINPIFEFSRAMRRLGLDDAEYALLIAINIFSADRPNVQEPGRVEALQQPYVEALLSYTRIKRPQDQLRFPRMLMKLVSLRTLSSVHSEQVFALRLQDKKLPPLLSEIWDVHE

[10] = cytotoxicity toward Colo320 cells – cell-based, CellTiter-Glo luminescence, IC50, dose response (AID 1117334); format: functional; details: COLO 320
[11] = biological target: Nuclear receptor subfamily 0 group B member 1 (Homo sapiens, UniProt P51843); assay: Luminescence-based cell-based high throughput dose response assay for inhibitors of the orphan nuclear receptor subfamily 0, group B, member 1 (DAX1; NR0B1). [Related pubchem assays (depositor defined):AID504766, AID504790]; format: functional
[12] = cytotoxicity toward HCT116 cells – cell-based, CellTiter-Glo luminescence, IC50, dose response (AID 1117332); format: functional; details: HCT-116
[13] = cytotoxicity toward HT-29 cells – cell-based, CellTiter-Glo luminescence, IC50, dose response (AID 1117330); format: functional
[14] = Concentration-dependent survival of SW480 colon cancer line, luminescence detection with CellTiter-Glo, half-maximal inhibitory concentration (AID 1117338); format: functional
[15] = cells; format: functional, cell-based
[16] = SNU-C1 cell viability reduction, dose response, CellTiter-Glo luminescence (AID 1117323); format: functional, cell-based
[17] = HCT116 cell viability decrease, GSK3B pretreatment – CellTiter-Glo, IC50, dose response (AID 1117339); format: functional; details: HCT-116
[18] = RKO cell viability reduction, dose response, CellTiter-Glo luminescence (AID 1117322); format: functional
[19] = tested on: HEK293; assay: cells; format: functional, cell-based; details: Homo sapiens
[20] = cells; format: functional, cell-based; remark: listed apart in the source

T1 sequence (O14939 whole entry): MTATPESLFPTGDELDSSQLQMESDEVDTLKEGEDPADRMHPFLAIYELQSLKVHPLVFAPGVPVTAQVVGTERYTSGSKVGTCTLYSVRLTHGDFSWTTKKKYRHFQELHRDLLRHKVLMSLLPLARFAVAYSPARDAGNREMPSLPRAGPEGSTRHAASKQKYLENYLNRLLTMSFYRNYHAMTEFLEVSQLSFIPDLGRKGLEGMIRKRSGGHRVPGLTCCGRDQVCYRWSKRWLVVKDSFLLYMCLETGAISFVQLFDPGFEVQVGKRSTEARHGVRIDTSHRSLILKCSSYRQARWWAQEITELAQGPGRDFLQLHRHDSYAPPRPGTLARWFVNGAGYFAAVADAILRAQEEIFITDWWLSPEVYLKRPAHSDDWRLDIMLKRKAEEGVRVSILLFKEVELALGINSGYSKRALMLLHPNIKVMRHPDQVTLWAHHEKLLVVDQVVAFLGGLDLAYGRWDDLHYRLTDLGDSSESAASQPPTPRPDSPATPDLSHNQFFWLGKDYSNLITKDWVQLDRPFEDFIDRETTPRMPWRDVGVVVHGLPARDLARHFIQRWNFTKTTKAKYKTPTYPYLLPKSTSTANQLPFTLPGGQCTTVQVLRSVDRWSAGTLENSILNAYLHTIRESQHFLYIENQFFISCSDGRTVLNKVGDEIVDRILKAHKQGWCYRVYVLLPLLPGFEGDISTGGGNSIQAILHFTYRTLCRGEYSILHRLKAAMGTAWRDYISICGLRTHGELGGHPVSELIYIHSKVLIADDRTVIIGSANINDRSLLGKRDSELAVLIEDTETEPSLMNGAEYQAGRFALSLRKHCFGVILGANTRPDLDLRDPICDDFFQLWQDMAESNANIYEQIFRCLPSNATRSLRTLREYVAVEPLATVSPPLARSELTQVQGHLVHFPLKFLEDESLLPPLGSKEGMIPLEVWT
Phospholipase D1, sequence (Q13393 whole entry): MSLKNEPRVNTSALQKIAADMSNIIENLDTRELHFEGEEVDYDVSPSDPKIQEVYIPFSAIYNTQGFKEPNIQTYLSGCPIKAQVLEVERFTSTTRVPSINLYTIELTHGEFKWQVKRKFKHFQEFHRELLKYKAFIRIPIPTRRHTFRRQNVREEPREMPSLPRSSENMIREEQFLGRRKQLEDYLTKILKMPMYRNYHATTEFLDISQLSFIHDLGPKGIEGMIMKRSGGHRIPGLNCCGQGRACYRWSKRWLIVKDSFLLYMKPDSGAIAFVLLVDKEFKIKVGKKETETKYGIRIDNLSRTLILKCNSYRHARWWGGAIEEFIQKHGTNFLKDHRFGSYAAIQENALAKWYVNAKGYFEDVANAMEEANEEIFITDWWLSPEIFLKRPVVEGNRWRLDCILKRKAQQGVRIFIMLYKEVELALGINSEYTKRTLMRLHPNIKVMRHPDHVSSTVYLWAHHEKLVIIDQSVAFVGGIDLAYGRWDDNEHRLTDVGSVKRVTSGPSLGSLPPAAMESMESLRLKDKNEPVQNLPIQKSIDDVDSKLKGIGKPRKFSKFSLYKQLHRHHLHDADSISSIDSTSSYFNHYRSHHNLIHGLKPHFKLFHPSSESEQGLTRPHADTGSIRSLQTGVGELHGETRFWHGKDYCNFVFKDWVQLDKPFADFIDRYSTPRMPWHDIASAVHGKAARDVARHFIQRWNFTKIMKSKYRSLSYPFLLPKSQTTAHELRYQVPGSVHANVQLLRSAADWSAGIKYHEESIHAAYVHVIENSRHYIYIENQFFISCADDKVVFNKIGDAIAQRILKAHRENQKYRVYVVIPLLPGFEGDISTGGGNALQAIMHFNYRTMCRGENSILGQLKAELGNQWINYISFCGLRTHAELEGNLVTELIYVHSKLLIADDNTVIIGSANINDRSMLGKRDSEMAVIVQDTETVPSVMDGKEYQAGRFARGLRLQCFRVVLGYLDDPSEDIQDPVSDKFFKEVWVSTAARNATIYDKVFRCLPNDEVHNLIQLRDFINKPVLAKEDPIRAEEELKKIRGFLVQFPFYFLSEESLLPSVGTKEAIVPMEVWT
Dual specificity protein phosphatase 3, sequence (P51452 whole entry): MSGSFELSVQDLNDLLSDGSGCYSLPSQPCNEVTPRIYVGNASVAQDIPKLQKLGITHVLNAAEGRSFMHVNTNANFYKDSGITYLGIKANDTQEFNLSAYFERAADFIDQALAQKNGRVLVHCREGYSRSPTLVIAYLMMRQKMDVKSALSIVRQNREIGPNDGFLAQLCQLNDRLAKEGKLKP
Nuclear receptor subfamily 0 group B member 1, sequence (P51843 whole entry): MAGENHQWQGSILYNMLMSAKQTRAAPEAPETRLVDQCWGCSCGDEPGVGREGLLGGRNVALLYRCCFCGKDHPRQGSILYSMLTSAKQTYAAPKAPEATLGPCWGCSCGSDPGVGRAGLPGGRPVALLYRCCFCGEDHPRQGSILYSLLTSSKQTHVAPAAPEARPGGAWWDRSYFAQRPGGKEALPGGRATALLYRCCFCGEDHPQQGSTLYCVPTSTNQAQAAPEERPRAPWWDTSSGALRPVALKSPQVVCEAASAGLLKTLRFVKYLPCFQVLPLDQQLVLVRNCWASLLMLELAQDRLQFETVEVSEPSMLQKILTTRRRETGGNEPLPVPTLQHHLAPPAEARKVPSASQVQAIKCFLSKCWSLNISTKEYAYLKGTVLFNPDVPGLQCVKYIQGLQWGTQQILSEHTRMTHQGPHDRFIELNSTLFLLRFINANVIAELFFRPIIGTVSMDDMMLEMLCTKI

C[C@@H](CN1CCC2(CC1)C(=O)NCN2c1ccccc1)NC(=O)c1ccc(F)c(F)c1
IC50 [1]: 2.22 µM (active) | IC50 [2]: 2.15 µM (active) | IC50 [3]: 0.21 µM (active)

CC(C)c1ccc(C(NC(=O)C2CCCCC2)c2cc([N+](=O)[O-])c3cccnc3c2O)cc1 (stereo not given)
IC50 [4]: 11.6 µM (active) | IC50 [5]: 76.4 µM (inactive) | IC50 [6]: 3.96 µM (active)

COc1ccc(C(=O)Nc2nc3c(OC)ccc(C)c3s2)cc1
IC50 [7]: 48.7 µM (active)

Nc1ccc(C(=O)Nc2ccccc2N)cc1 [DINALINE]
IC50 [8]: > 20 µM (inactive) | EC50 [9]: > 67.6 µM (inactive) | IC50 [10]: > 20 µM (inactive) | IC50 [11]: 19.8 µM (inactive) | IC50 [12]: > 6.67 µM (inactive) | IC50 [13]: > 20 µM (inactive) | IC50 [14]: > 20 µM (inactive) | EC50 [15]: > 350 µM (not active) | IC50 [16]: > 20 µM (inactive) | IC50 [17]: 12.9 µM (inactive) | IC50 [18]: > 20 µM (inactive) | IC50 [19]: 0.255 µM (active) | EC50 [20]: 18.7 µM (active)
